Data: ChEMBL document CHEMBL1201862, “PubChem BioAssay data set” (2004)
The source made the active and inactive calls.

What was measured:
[1] = molecular target: Sphingosine 1-phosphate receptor 1 (Homo sapiens, UniProt P21453); assay: Cell-membrane dose response assay to identify antagonists of the Sphingosine 1-Phosphate receptor 1 (S1P1).; type: functional
[2] = molecular target: Bifunctional protein GlmU (Mycobacterium tuberculosis, UniProt P9WMN3); assay: Inhibitors of Mycobacterial Glucosamine-1-phosphate acetyl transferase (GlmU). Secondary screen.; set-up: species or system Mycobacterium tuberculosis H37Rv
Sequence of Bifunctional protein GlmU (P9WMN3 whole entry): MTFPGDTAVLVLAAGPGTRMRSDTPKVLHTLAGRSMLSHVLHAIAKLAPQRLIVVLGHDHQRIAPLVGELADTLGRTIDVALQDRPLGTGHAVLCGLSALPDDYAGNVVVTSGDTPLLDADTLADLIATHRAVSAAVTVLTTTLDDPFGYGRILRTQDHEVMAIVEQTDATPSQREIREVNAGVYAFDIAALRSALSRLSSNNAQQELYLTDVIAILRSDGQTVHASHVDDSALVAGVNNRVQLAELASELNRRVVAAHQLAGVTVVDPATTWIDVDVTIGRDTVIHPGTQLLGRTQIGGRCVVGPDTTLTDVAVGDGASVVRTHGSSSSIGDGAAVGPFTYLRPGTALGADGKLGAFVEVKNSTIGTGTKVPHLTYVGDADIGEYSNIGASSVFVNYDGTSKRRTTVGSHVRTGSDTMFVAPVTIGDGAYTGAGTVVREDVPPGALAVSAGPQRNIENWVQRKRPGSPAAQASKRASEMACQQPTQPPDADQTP

Galanin receptor type 2 = Galanin receptor type 2 (Homo sapiens, UniProt O43603); assay: Dose Response cell-based high-throughput screening assay to identify antagonists of galanin receptor 2 (GALR2). [Related pubchem assays: 828, 866 ]; type: functional
Sequence of Galanin receptor type 2 (O43603 whole entry): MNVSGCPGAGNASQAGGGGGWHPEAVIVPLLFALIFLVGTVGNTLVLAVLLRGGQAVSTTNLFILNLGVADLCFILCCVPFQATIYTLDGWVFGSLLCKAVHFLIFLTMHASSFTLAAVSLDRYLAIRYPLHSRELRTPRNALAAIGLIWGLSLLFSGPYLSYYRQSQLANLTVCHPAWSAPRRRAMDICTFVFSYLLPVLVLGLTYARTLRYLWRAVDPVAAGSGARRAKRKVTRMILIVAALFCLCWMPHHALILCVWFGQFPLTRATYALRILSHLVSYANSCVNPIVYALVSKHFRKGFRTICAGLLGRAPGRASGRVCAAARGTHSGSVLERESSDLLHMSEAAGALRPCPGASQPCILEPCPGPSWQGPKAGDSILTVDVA

[3] = molecular target: Heat shock protein HSP 90-alpha (Homo sapiens, UniProt P07900); assay: Luminescence-based dose response biochemical high throughput screening assay for inhibitors of the Heat Shock Protein 90 (HSP90). [Related pubchem assays: 1831 (Summary AID.), 1846 (Confirmation screen.), 1789 (Primary screen.)]
H4 = assay: Luminescence Cell-Based Dose Response HTS to Identify Activators of 5'UTR Stem-Loop Driven Prion Protein mRNA Translation in H4 Neuroglioblastoma Cells. [Related pubchem assays: 1829 (Project Summary), 1814 (Primary HTS)]; type: functional; settings: Homo sapiens
[4] = Luminescence Cell-Based Dose Confirmation HTS to Identify Activators of 5'UTR Stem-Loop Driven Alpha-Synuclein mRNA Translation in H4 Neuroglioblastoma Cells. [Related pubchem assays: 1829 (Project Summary), 1814 (Primary HTS)]; type: functional
[5] = Luminescence Cell-Based Dose Response HTS to Identify Activators of Luciferase Translation or Activity in H4 […] Cells. [Related pubchem assays: 1829 (Project Summary), 1814 (Primary HTS)]; type: functional
[6] = molecular target: T1, Mannose-6-phosphate isomerase (Homo sapiens, UniProt P34949); assay: inhibitors of human PMI, primary screen, biochemical, fluorescence intensity, coupled assay (AID 1209)
T1 sequence (P34949 whole entry): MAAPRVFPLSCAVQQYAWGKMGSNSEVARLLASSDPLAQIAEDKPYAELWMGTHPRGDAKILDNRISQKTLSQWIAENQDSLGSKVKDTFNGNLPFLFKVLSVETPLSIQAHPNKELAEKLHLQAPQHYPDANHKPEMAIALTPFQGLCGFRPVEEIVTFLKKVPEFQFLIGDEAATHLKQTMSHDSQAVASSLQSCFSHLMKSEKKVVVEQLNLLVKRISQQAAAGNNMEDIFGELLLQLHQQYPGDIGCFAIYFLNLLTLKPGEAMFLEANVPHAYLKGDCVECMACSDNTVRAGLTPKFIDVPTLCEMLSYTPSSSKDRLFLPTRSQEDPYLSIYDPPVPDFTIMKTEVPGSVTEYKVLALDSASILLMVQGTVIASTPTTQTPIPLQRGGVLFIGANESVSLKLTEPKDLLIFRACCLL

[7] = molecular target: Voltage-gated inwardly rectifying potassium channel KCNH2 (Homo sapiens, UniProt Q12809); assay: hERG protection from proarrhythmic block, potency, dose response, cell-based, thallium flux (AID 2121); type: ADME
Sequence of Voltage-gated inwardly rectifying potassium channel KCNH2 (Q12809 whole entry): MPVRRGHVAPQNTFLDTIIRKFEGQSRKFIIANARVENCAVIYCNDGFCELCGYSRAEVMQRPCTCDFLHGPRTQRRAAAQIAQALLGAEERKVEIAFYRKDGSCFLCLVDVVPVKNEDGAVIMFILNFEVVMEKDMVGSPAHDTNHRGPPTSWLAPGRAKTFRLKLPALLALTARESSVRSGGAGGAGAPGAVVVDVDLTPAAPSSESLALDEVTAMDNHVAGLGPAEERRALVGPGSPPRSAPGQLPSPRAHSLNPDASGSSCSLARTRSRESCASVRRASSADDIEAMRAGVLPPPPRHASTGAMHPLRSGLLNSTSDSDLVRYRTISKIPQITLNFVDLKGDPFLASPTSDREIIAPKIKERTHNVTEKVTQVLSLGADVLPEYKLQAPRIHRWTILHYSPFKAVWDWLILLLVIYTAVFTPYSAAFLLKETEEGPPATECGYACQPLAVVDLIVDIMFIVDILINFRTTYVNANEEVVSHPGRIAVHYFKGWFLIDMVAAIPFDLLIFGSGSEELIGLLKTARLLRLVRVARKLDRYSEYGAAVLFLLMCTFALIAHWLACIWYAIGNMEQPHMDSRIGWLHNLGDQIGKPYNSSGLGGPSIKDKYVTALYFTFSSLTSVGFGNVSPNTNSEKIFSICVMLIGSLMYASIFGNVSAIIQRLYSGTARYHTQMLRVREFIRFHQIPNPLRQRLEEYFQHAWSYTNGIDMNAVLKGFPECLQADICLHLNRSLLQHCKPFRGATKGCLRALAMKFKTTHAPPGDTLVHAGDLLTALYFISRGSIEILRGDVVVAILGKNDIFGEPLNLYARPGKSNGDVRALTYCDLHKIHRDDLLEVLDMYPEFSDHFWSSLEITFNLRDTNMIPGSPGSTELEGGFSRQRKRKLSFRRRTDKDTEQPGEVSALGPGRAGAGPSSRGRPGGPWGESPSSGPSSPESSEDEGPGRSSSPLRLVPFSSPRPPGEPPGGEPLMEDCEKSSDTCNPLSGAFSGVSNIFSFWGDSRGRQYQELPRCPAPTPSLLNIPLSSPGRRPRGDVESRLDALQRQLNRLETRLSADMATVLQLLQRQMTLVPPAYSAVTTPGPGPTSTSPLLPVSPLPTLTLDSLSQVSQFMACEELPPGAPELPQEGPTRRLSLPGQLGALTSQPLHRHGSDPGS

[8] = molecular target: Luciferin 4-monooxygenase (Photinus pyralis, UniProt P08659); assay: firefly luciferase enzyme inhibitors, dose response, biochemical, luminescence (AID 1891)
Sequence of Luciferin 4-monooxygenase (P08659 whole entry): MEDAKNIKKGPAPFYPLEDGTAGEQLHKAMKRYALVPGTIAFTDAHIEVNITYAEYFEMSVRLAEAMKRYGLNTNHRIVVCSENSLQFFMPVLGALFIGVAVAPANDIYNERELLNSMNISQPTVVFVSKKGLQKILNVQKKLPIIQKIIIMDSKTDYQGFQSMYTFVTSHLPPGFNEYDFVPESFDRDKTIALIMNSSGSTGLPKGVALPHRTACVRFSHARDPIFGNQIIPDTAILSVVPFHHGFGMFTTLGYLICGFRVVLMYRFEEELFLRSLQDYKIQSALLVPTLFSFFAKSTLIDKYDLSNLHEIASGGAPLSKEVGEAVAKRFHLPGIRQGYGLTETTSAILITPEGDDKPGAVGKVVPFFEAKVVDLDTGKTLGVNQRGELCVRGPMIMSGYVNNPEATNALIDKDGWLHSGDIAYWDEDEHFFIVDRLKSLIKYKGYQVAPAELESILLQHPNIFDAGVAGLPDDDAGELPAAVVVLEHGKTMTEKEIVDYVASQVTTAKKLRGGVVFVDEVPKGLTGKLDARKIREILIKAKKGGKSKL

[9] = Luminescence Cell-Based Dose Confirmation HTS to Identify Inhibitors of Platelet Dense Granule Release. [Related pubchem assays: 1663 (Primary HTS), 1678 (Summary of Project)]; type: functional
[10] = Fluorescence Cell-Based Dose Response to Identify Inhibitors of Thrombin Receptor-Activating Peptide SFLLRN-Mediated P-Selectin Induction on Platelets. [Related pubchem assays: 1663 (Primary HTS), 1889 (retest at dose ), 1891 (counterscreen), 1678 (Project Summary)]; type: functional
[11] = M. tuberculosis growth inhibition, HTS (AID 449762); type: functional
Protein skinhead-1 = molecular target: T2, Protein skinhead-1 (Caenorhabditis elegans, UniProt P34707); type: functional
T2 sequence (P34707 whole entry): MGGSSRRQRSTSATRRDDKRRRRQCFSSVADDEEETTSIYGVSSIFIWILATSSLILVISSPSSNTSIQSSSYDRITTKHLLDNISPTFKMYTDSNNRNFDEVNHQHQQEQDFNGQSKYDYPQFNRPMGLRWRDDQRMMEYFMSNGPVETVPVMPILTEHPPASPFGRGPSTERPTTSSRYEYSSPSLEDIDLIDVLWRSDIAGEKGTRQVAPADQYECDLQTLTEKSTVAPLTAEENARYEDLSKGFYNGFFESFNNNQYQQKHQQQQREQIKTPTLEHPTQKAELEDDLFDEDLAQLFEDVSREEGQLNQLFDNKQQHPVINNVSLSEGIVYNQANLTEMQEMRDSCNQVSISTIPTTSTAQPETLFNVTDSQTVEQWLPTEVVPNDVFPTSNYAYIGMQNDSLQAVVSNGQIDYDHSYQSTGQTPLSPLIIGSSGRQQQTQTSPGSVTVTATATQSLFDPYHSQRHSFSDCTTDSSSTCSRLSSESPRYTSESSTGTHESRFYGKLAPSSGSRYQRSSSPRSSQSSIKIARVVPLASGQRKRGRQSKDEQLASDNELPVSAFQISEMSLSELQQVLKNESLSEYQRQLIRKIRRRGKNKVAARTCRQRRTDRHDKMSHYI

[12] = molecular target: 5-hydroxytryptamine receptor 1A (Homo sapiens, UniProt P08908); type: functional
Sequence of 5-hydroxytryptamine receptor 1A (P08908 whole entry): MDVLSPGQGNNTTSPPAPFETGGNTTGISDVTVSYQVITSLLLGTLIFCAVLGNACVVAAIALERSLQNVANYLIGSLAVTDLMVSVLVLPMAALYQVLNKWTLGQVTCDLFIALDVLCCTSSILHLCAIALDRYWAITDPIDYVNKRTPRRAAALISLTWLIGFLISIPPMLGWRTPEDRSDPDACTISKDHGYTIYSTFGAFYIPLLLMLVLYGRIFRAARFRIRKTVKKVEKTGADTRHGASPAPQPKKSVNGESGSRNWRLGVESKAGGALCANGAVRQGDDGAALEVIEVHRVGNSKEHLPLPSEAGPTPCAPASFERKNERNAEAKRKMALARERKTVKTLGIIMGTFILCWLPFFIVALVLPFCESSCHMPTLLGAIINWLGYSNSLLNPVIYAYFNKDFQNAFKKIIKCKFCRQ

[13] = molecular target: T3, Neuropeptide Y receptor type 2 (Homo sapiens, UniProt P49146); assay: NPY-Y2 antagonist potency, selectivity check, dose response, counter-screen for NPY-Y1 antagonist project, cell-based (AID 1278); type: functional
T3 sequence (P49146 whole entry): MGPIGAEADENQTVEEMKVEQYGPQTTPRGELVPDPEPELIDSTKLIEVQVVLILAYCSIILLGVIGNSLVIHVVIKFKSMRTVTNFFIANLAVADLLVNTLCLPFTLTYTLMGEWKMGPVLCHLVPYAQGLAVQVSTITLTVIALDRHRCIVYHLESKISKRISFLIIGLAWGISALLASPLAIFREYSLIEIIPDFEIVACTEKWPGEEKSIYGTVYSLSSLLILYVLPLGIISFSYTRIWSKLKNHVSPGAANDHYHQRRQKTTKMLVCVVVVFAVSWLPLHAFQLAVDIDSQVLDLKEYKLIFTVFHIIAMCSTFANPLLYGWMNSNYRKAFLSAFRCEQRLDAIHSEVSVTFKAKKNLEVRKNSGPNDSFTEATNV

[14] = molecular target: T4, Neuropeptide Y receptor type 1 (Homo sapiens, UniProt P25929); assay: NPY-Y1 receptor antagonist potency, dose response, cell-based (AID 1277); type: functional
T4 sequence (P25929 whole entry): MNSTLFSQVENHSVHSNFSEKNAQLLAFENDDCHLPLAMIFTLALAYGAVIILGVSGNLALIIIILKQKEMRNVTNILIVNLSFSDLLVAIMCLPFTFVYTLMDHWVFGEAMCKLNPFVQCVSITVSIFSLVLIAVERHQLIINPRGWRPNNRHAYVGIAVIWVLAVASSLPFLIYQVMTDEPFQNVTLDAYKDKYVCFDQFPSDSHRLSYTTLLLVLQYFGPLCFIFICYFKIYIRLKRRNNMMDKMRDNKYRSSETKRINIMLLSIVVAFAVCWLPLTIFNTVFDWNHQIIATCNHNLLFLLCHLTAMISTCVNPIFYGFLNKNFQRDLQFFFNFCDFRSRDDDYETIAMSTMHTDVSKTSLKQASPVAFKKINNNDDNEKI

Vero = assay: host cell cytotoxicity of antiviral hits, dose response, cytotoxicity control for West Nile virus antiviral project, secondary assay (AID 1650); type: functional; settings: Chlorocebus sabaeus
[15] = inhibitors of firefly luciferase expression or activity, dose response, H4 neuroglioma cells, luminescence (AID 1990); type: functional, cell-based
[16] = HEp-2 cell cytotoxicity, dose response, cytotoxicity control for RSV inhibitor project, HTS (AID 2410); type: functional; settings: human respiratory syncytial virus
[17] = Luminescence Cell-Based Dose Response HTS to Identify Inhibitors of 5'UTR Stem-Loop Driven Prion Protein mRNA Translation in H4 Neuroglioblastoma Cells. [Related pubchem assays: 1827 (Project Summary), 1813 (Primary HTS)]; type: functional
[18] = inhibitors of SNCA 5'UTR-driven reporter translation, confirmation, H4 neuroglioma cells, luminescence (AID 1988); type: functional, cell-based

Sequence of Sphingosine 1-phosphate receptor 1 (P21453 whole entry): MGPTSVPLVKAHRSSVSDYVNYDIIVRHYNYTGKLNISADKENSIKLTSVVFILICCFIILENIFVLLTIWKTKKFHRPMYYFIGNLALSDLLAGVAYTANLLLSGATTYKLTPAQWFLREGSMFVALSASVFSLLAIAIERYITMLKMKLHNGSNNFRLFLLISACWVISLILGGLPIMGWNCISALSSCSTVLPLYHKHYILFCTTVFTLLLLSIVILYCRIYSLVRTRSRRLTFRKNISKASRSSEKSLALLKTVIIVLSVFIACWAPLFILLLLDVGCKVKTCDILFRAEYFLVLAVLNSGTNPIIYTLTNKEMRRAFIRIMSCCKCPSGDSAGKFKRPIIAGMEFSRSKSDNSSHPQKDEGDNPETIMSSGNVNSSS

With `CCCCCCc1cccc(NC(=O)[C@H](N)CCP(=O)(O)O)c1` the Ki [1] was 4.63 µM (active).

In the case of `CCn1c2ccc(C)cc2c2nc3cc(C(=O)O)ccc3nc21`, the IC50 [2] is reported as 191 µM (active) and the IC50 (Galanin receptor type 2) is reported as > 42 µM (not active).

For `Cc1nc(NC(=O)c2cccc(Cl)c2)sc1C(=O)N1CCCCC1`, the IC50 [3] was 6.4 µM (active), the EC50 (H4) was 20.1 µM (active) and the EC50 [4] was 12.2 µM (active). For the same molecule, the EC50 [5] was 14.2 µM (active).

With `CC1(C(=O)CSc2nc[nH]n2)CCC(=O)O1` (configuration not stated) the IC50 [6] was > 50 µM (not active).

With `CC(C)CNC(=S)NC(=O)c1ccc(Cl)cc1` the EC50 [7] was 6.61 µM (active).

In the case of `O=C(Oc1ccc(Cl)cc1)c1ccc(COC(=O)c2cnccn2)cc1`, the EC50 [8] is reported as > 112 µM (not active), the EC50 [9] is reported as 7.27 µM (active) and the EC50 [10] is reported as > 100 µM (not active).

In the case of `O=C1c2ccccc2C(=O)N1Nc1ccccc1`, the IC50 [11] is reported as > 100 µM (active).

In the case of `O=C(COC(=O)CCC1CCCC1)Nc1ccc(Cl)cn1`, the IC50 (Protein skinhead-1) is reported as > 100 µM (inactive) and the EC50 [12] is reported as > 50 µM (not active).

For `Cc1ccc(C)c(SCc2noc(C(=O)NCC3CCCO3)c2C(=O)O)c1` (configuration not stated), the IC50 [13] was 26.4 µM (not active) and the IC50 [14] was > 35 µM (not active).

For `CC12CC[C@H]3[C@@H](CCC4(O)C[C@H](O)CCC34/C=N/NC(=O)c3ccccc3[N+](=O)[O-])C1(O)CCC2C1=CC(=O)OC1` (some centres not stated), the CC50 (Vero) was 32 µM (active), the EC50 [15] was 11.2 µM (active) and the CC50 [16] was 12.9 µM (active). For the same molecule, the EC50 [17] was 11.9 µM (active) and the EC50 [18] was 8.77 µM (active).
